Experimental data reported in patent publication US9161894B2, “Use of N-(4-methoxyphenyl)-1-phenyl-1H-pyrazol-3-amine and related compounds” (NPHARMAKON, LLC, priority 2011, dated 2015).
pIC50: −log10 of the molar value. Where “and” joins values, the source holds several entries; their conditions need not be identical. Identical values can stand only once. Like-named read-outs stand apart in the source and are kept apart here.

Key:
[1] = test system: rabbit skin edema; conditions: co-injected with arachidonic acid; cited from earlier work
[2] = cited from earlier work
[3] = biological target: T1, 5-lipoxygenase (5-LO) (Homo sapiens, UniProt P09917); conditions: in vitro assays; cited from earlier work
T1 sequence (P09917 1-674): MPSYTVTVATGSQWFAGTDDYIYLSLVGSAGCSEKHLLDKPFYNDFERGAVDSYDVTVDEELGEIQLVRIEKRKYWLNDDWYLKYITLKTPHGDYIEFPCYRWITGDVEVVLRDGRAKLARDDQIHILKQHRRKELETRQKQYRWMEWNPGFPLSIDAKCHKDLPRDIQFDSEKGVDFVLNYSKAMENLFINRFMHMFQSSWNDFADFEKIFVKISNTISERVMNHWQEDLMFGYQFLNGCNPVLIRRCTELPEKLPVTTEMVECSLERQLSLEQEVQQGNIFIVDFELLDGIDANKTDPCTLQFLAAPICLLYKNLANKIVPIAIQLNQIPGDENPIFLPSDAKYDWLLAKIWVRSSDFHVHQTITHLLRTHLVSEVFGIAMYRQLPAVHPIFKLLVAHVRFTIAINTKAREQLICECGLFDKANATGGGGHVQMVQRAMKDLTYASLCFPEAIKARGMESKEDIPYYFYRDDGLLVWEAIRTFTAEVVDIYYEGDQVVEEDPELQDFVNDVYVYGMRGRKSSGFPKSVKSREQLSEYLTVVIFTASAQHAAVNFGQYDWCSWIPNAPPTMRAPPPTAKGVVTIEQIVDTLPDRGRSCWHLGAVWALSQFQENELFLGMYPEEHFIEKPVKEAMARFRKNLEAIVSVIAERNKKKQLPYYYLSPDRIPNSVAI

[4] = test system: UV irradiation-induced erythema; conditions: guinea pig; cited from earlier work
[5] = biological target: T2, Kit autophosphorylation in M07e cells (Homo sapiens, UniProt P10721); assay: Cellular Kit phosphorylation assay (ProQinase sandwich ELISA) in M07e cells; format: cell-based
T2 construct: expressing endogenously a high level of wild-type Kit; host or cells: M07e (human acute megakaryoblastic leukemia)
Protocol: The human acute megakaryoblastic leukemia cell line M07e expressing endogenously a high level of wild-type Kit was used in the cellular Kit phosphorylation assay. Stimulation of these cells with human Kit ligand results in receptor tyrosine autophosphorylation. M07e cells were plated in RPMI supplemented with 20% FCS and 10 ng/ml GM-CSF in multiwell cell culture plates. After serum- and growth factor-starvation overnight, cells were incubated with test compounds in serum-free medium. Pre-diluted test samples were added 1:100 to the cell culture medium resulting in a final DMSO concentration of 1%. After 90 minute incubation at 37° C., cells were stimulated with 100 ng/ml Kit ligand for 3 minutes. Cells treated with staurosporine were defined as Low control, and cells treated with solvent alone were defined as High control. Test sample-treated cells, as well as High and Low control, were stimulated in identical manner. Quantification of substrate phosphorylation was assessed in 96 well plates via sandwich ELISA using a substrate specific capture antibody and an anti-phosphotyrosine detection antibody. Raw data were converted into percent substrate phosphorylation relative to High control, set to 100%. […] The equation is a four-parameter logistic equation.

[6] = test system: human skin; assay: Safety and adverse events at application sites in the pilot clinical study; format: in vivo; conditions: topical twice daily, any time point during the study
Protocol: Lower back of each subject was used as the test area. Five identically sized application sites (square 3 cm by 3 cm) were marked on the skin of each subject and labeled A through E. 0.1 gram of each material, as measured by extrusion from a syringe, was applied on the appropriate site, using a gloved finger, by a trained technician, guided by markings on the skin and the application site diagram. The application was carried out in an accredited outpatient facility twice daily (morning and afternoon/evening), 6 days per week (with no treatments on Sunday). The procedure was continued in the same manner for the duration of the study. Subjects 2, 3 and 4 entered the study on day 1 (Friday) and each received 48 treatments (no subject missed any of the treatments). Subjects 8, 9, and 10 entered the study on day 4 (Monday) and each received 44 treatments. No subject missed any of the treatments.
In all cases, the condition of the sites treated with Formulation E improved upon termination of the treatment.

[7] = biological target: T3, Kit (human) (Homo sapiens, UniProt P10721); assay: Millipore KinaseProfiler radiometric-based filtration binding assay of Kit kinase; conditions: biochemical assay, read-out: IC50 of Kit kinase inhibition (converted)
T3 construct: purchased EMD Millipore Corporation (KinaseProfiler service)
Protocol: To characterize the inhibitory activity of FPL-62064 against Kit kinase, the drug was tested using Millipore KinaseProfiler radiometric-based filtration binding assay (EMD Millipore Corporation, Billerica, Mass.). In a final reaction volume of 25 μL, Kit (human) (5-10 mU) was incubated with 8 mM MOPS pH 7.0, 0.2 mM EDTA, 10 mM MnCl2, 0.1 mg/mL poly(Glu, Tyr) 4:1, 10 mM MgAcetate and 10 μM [γ^33P-ATP] (specific activity approx. 500 cpm/pmol). The reaction was initiated by the addition of the MgATP mix. After incubation for 40 minutes at room temperature, the reaction was stopped by the addition of 5 μL of a 3% phosphoric acid solution. 10 μL of the reaction was then spotted onto a Filtermat A and washed three times for 5 minutes in 75 mM phosphoric acid and once in methanol prior to drying and scintillation counting.

[8] = test system: darker human skin (pigmentation); assay: Single-blind pilot clinical study of skin lightening on darker human skin; format: in vivo; conditions: day 29 / end of study, significance at p<0.05
Protocol: The study protocol and informed consent form were reviewed and approved by the Guangzhou Institutional Review Board (Guangzhou, China) prior to the initiation of the study. […]
The following test formulations were prepared and pH of each formulation was measured, as shown below. […]
Lower back of each subject was used as the test area. Five identically sized application sites (square 3 cm by 3 cm) were marked on the skin of each subject and labeled A through E. 0.1 gram of each material, as measured by extrusion from a syringe, was applied on the appropriate site, using a gloved finger, by a trained technician, guided by markings on the skin and the application site diagram. […]
L value (brightness) reading was taken in duplicate with the spectrophotometer CM-2600d (Konica Minolta, Osaka, Japan). The melanin (M) index reading was taken in duplicate with a Mexameter® MX18 (Courage & Khazaka, Cologne, Germany). […]
Statistical analysis was performed using the computer program SigmaStat 11 (Systat Software Inc., Chicago, Ill., USA) on a Microsoft Windows computer. For all data (Visual Scoring (VS), L value (brightness) (L), and MeIanin Index (M)), the baseline readings were subtracted prior to analysis. […]

[9] = test system: immune-complex-induced peritoneal inflammation; conditions: mouse, intraperitoneal, fine suspension in saline; cited from earlier work
[10] = humans, preliminary data; cited from earlier work
[11] = test system: carrageenin foot edema; conditions: rats, oral route, doses up to 200 mg/kg; cited from earlier work
[12] = biological target: T4, 5-LO in intact RBL-1 cells (Rattus norvegicus, UniProt P12527); conditions: cited from earlier work
T4 construct: endogenous in cells; host or cells: RBL-1 cells
T4 sequence (P12527 1-673): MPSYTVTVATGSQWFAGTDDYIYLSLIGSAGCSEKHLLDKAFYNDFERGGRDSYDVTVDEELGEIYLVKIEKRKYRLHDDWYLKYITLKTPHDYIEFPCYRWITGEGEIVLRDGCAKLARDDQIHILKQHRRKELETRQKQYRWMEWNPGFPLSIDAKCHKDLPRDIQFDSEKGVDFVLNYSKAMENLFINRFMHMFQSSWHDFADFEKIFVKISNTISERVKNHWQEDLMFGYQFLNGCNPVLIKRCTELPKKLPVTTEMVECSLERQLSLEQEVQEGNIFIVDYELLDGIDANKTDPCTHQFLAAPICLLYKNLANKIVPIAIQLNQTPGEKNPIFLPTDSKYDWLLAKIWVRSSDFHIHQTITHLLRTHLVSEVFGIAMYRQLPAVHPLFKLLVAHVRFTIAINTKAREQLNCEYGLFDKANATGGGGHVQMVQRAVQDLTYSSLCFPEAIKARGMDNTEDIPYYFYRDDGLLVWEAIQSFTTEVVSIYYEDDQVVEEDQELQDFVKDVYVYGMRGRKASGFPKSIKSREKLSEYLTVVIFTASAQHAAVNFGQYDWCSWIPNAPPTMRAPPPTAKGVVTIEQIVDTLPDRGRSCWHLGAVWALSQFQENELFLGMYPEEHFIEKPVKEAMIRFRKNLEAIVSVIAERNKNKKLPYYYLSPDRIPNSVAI

[13] = test system: PGS in intact RBL-1 cells; conditions: cited from earlier work
[14] = biological target: prostaglandin synthetase (PGS); conditions: in vitro assays; cited from earlier work
[15] = test system: arachidonic acid-induced ear edema; conditions: mouse ear; cited from earlier work

T3 sequence (P10721 26-976): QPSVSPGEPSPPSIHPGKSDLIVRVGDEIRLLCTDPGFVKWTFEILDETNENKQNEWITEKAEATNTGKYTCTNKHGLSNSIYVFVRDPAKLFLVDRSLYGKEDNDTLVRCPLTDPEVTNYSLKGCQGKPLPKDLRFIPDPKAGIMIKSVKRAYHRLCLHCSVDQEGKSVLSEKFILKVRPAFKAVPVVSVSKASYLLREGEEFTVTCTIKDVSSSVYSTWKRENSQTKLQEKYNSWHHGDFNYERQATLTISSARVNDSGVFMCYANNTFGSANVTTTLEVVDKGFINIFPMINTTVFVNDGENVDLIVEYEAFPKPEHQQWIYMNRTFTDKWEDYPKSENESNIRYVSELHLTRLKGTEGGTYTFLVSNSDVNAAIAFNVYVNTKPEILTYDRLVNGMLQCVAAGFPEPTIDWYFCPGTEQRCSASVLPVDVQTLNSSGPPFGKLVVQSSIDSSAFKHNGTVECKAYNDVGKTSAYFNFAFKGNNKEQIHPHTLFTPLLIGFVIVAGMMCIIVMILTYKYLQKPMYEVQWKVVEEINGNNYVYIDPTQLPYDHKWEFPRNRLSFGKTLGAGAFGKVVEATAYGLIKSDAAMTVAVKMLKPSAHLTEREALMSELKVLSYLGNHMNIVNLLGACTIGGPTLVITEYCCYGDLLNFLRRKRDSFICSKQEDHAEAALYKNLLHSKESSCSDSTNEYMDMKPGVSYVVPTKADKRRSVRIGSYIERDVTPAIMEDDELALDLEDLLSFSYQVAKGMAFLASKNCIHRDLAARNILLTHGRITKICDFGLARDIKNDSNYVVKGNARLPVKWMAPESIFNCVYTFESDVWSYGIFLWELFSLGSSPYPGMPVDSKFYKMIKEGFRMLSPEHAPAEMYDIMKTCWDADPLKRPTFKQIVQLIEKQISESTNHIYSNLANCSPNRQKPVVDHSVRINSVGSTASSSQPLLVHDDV
T2 sequence (P10721 26-976): as above
T2 sequence (P21583 26-190 partner limits assumed): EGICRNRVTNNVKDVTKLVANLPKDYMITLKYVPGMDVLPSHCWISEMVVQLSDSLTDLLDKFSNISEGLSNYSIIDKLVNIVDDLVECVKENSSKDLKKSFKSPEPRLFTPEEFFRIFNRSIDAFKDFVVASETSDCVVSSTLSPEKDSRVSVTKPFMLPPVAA

For `COc1ccc(Nc2ccn(-c3ccccc3)n2)cc1` [FPL-62064, N-(4-methoxyphenyl)-1-phenyl-1H-pyrazol-3-amine], the “edema and eicosanoid formation” value [1] is listed as “inhibited”, the topical bioavailability ([2]; topical) is listed as “topically bioavailable” and the metabolism ([2]; upon intravenous administration) is listed as “rapidly and extensively metabolized”. The pIC50 [3] was 4.94 to 5.46, the “UV irradiation-induced erythema and prostaglandin E2 formation” value [4] was “inhibited” and the pIC50 ([5]; 90 min incubation, 100 ng/ml Kit ligand) was 5.92. For the same compound, the pIC50 ([5]; same value in mass units) was 5.95, the “adverse events, sensitivity or irritation at treated sites” value [6] was “well tolerated” and the IC50 ([7]; 10 μM ATP) was 6.9 µM and 6.89 µM. For the same compound, the IC50 ([7]; same value in mass units) was 7.54 µM, the “change of the melanin index (M) from baseline compared to the control site (Formulation D, vehicle)” value [8] was “statistically significant decrease” and the “activity against immune-complex-induced peritoneal inflammation” value [9] was “demonstrated local activity”. For the same compound, the “safety and tolerability of topical application” value [10] was “safe and well tolerated”, the “activity against carrageenin foot edema” value [11] was “inactive” and the pIC50 [12] was 4.51. For the same compound, the pIC50 [13] was 5.44, the pIC50 [14] was 5.51 and the “edema formation and eicosanoid production induced by arachidonic acid” value [15] was “inhibited”.
